From PMC4996284 (CNS neuroscience & therapeutics, 2016)

What was measured:
rat ASIC1a [1] = biological target: T1, rat ASIC1a (Rattus norvegicus, UniProt P55926); experiment: cell-based
T1 sequence (P55926 1-526): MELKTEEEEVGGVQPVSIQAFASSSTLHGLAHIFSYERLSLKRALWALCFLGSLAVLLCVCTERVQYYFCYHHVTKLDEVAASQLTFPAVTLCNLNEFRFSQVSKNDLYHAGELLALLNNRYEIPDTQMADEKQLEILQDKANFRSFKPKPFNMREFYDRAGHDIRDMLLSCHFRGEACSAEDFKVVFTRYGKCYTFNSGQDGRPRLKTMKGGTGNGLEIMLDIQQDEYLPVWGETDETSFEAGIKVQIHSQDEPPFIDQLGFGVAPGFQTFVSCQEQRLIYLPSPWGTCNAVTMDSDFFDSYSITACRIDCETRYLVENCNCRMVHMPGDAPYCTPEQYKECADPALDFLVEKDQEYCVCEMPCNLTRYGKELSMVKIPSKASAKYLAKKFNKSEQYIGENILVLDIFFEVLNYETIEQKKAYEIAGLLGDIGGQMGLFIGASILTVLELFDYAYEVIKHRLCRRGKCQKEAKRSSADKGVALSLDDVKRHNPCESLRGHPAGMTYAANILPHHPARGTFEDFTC

rat ASIC1a [2] = biological target: T1, rat ASIC1a; conditions: potency relative to amiloride
[3] = test system: MCAO-induced focal ischemia; experiment: Transient focal ischemia by middle cerebral artery occlusion; assay type: in vivo, mouse; conditions: mice, 1 µl of 500 µM i.c.v. 3h after MCAO (~12 µM); ACSF 49%

For `NC(=Nc1ccccc1)NC(=O)c1nc(Cl)c(N)nc1N` [Phenamil], the IC50 (rat ASIC1a [1]) was 6.95 µM and the “increased inhibitory activity on ASIC1a currents in comparison with amiloride” value (rat ASIC1a [2]) was ~ 2 fold.
For `NC(=NCc1ccccc1)NC(=O)c1nc(Cl)c(N)nc1N` [Benzamil], the infarct volume [3] was 33.75%, the IC50 (rat ASIC1a [1]) was 3.5 ± 0.18 µM and the “increased inhibitory activity on ASIC1a currents in comparison with amiloride” value (rat ASIC1a [2]) was ~ 4 fold.
`CCN(c1nc(N)c(C(=O)NC(=N)N)nc1Cl)C(C)C` [EIPA, 5-(N-ethyl-N-isopropyl)amiloride] gave an IC50 (rat ASIC1a [1]) of 20.7 ± 2.18 µM.
